Experimental data: patent US4604381A, “4-demethoxy-13-dihydrodaunorubicin and use thereof” (Farmitalia Carlo Erba S.p.A., priority 1984, dated 1986)
≈ marks a conversion by molar mass, not a printed value. Like-named read-outs stand apart in the source and are kept apart here.

Key:
[1] = tested on: HeLa cells; assay: Colony inhibition test on HeLa cells (cytotoxicity); assay type: cell-based; settings: Homo sapiens; for IC50: read-out: DI50 (dose causing 50% inhibition)
Description: Cytotoxicity. Colony inhibition test on HeLa cells.
The test was carried on HeLa according to the method described in J. Med. Chem., 1975, 18, 703. Exponentially growing cells (2 days after inoculation) were treated with several concentrations of daunorubicin, 4-demethoxydaunorubicin, and 4-demethoxy-13-dihydrodaunorubicin.
After 24 hours of exposure to the drugs, the cells were washed, trypsinized and plated (200 cells/plate). On day 6 the colonies containing more than 50 cells were counted. The dose causing 50% inhibition was calculated on the basis of dose-reponsive curves.
Colony inhibition on HeLa cells^a
^b % respect with control

[2] = tested on: leukemia P 388; assay: Activity against ascitic leukemia P 388 in CDF-1 mice; assay type: in vivo; settings: i.p. on day 1
Description: Activity against ascitic leukemia P 388
The experiments were performed on CDF-1 mice inoculated i.p. with 10^6 leukemic cells/mouse.

[3] = tested on: Gross leukemia; assay: Activity against Gross leukemia in C3H mice; assay type: in vivo; settings: i.v. on day 1
Description: (§1) Activity against Gross leukemia
The experiments were performed on C3H mice inoculated i.v. with 2×10^6 leukemic cells/mouse.
as §1

[4] = tested on: advanced mammary Carcinoma; assay: Activity against advanced mammary carcinoma in C3H female mice; assay type: in vivo; settings: once a week × 4 from palpable tumor; for growth % on day 48: controls 3476
Description: Activity against advanced mammary Carcinoma^a
The experiments were performed on C3H female mice inoculated
with 2 × 10^6 tumor cells/mouse
^a treatment once a week × 4, starting when the tumor was […]

[5] = HeLa, 24 h, read-out: % Colonies (% respect with control)

## CC(O)[C@]1(O)Cc2c(O)c3c(c(O)c2[C@@H](O[C@H]2C[C@H](N)[C@H](O)[C@H](C)O2)C1)C(=O)c1ccccc1C3=O (stereo partly shown) [4-demethoxy-13-dihydrodaunorubicin]
[1]; [5]
  activity at 0.00156 µg/mL: 100%
  activity at 0.0031 µg/mL: 45%
  activity at 0.0062 µg/mL: 9%
  activity at 0.0125 µg/mL: 0%
[1]; HeLa, 24 h
  IC50: 3 ng/mL (≈ 0.00601 µM)
[2]; 0.14 mg/kg
  T/C %: 130%
  toxic deaths: 0/10
[2]; 0.22 mg/kg
  T/C %: 160%
  toxic deaths: 0/10
[2]; 0.33 mg/kg
  T/C %: 170%
  toxic deaths: 0/10
[2]; 0.5 mg/kg
  T/C %: 170%
  toxic deaths: 3/10
[3]; 0.84 mg/kg
  T/C %: 200%
  toxic deaths: 0/10
[3]; 1.26 mg/kg
  T/C %: 250%
  toxic deaths: 0/10
[3]; 1.9 mg/kg
  T/C %: 258%
  toxic deaths: 0/10
[4]; 0.6 mg/kg
  inhibition % on day 48: 0%
  growth % on day 48: 5124%
[4]; 0.8 mg/kg
  inhibition % on day 48: 3%
  growth % on day 48: 3374%
[4]; 1.2 mg/kg
  inhibition % on day 48: 65%
  growth % on day 48: 1201%

## CC(=O)[C@]1(O)Cc2c(O)c3c(c(O)c2[C@@H](O[C@H]2C[C@H](N)[C@H](O)[C@H](C)O2)C1)C(=O)c1ccccc1C3=O [4-demethoxydaunorubicin]
[1]; HeLa, 1.5 ng/ml, 24 hours exposure, read-out: % Colonies (% respect with control)
  activity at 0.0015 µg/mL: 126%
[1]; HeLa, 3.1 ng/ml, 24 hours exposure, read-out: % Colonies (% respect with control)
  activity at 0.0031 µg/mL: 73%
[1]; HeLa, 6.2 ng/ml, 24 hours exposure, read-out: % Colonies (% respect with control)
  activity at 0.0062 µg/mL: 37%
[1]; HeLa, 12.5 ng/ml, 24 hours exposure, read-out: % Colonies (% respect with control)
  activity at 0.0125 µg/mL: 10%
[1]; HeLa, 25 ng/ml, 24 hours exposure, read-out: % Colonies (% respect with control)
  activity at 0.025 µg/mL: 0%
[1]; HeLa colony inhibition, 24 hours exposure
  IC50: 5.5 ng/mL (≈ 0.0111 µM)
[2]; 0.33 mg/kg
  T/C %: 150%
  toxic deaths: 0/10
[2]; 0.5 mg/kg
  T/C %: 170%
  toxic deaths: 0/10
[2]; 0.75 mg/kg
  T/C %: 155%
  toxic deaths: 3/10
[3]; 1.9 mg/kg
  T/C %: 233%
  toxic deaths: 0/10
[3]; 2.5 mg/kg
  T/C %: 233%
  toxic deaths: 0/10
[3]; 3.3 mg/kg
  T/C %: 266%
  toxic deaths: 0/10
[4]; 0.8 mg/kg
  inhibition % on day 48: 0%
  growth % on day 48: 4322%
[4]; 1.2 mg/kg
  inhibition % on day 48: 42%
  growth % on day 48: 2029%

## COc1cccc2c1C(=O)c1c(O)c3c(c(O)c1C2=O)C[C@@](O)(C(C)=O)C[C@@H]3O[C@H]1C[C@H](N)[C@H](O)[C@H](C)O1 [daunorubicin]
[1]; [5]
  activity at 0.0062 µg/mL: 92%
  activity at 0.0125 µg/mL: 32%
  activity at 0.025 µg/mL: 3%
[1]; HeLa, 24 h
  IC50: 11 ng/mL (≈ 0.0209 µM)
[2]; 4.4 mg/kg
  T/C %: 180%
  toxic deaths: 0/10
[2]; 6.6 mg/kg
  T/C %: 168%
  toxic deaths: 2/10
[3]; 10 mg/kg
  T/C %: 150%
  toxic deaths: 0/10
[3]; 15 mg/kg
  T/C %: 183%
  toxic deaths: 0/10
[3]; 22.5 mg/kg
  T/C %: 233%
  toxic deaths: 0/10
